Source: paper PMC10112521, “High-throughput AR dimerization assay identifies androgen disrupting chemicals and metabolites” (Frontiers in Toxicology, 2023)
Values joined by “and” are separate entries in the source; they are usually repeats but may differ in a detail not shown here. Equal values may be shown once. Read-outs that look alike come from different tables or passages of the source.

Legend:
human AR [1] = biological target: T1, human AR (Homo sapiens, UniProt P10275); experiment: cell-based; set-up: species or system AR2 cells (HepG2-AR2); NanoLuc complementation AR homodimerization, agonist mode, luminescence gain, AC50 by Hill fit
T1 sequence (P10275 1-920) 1: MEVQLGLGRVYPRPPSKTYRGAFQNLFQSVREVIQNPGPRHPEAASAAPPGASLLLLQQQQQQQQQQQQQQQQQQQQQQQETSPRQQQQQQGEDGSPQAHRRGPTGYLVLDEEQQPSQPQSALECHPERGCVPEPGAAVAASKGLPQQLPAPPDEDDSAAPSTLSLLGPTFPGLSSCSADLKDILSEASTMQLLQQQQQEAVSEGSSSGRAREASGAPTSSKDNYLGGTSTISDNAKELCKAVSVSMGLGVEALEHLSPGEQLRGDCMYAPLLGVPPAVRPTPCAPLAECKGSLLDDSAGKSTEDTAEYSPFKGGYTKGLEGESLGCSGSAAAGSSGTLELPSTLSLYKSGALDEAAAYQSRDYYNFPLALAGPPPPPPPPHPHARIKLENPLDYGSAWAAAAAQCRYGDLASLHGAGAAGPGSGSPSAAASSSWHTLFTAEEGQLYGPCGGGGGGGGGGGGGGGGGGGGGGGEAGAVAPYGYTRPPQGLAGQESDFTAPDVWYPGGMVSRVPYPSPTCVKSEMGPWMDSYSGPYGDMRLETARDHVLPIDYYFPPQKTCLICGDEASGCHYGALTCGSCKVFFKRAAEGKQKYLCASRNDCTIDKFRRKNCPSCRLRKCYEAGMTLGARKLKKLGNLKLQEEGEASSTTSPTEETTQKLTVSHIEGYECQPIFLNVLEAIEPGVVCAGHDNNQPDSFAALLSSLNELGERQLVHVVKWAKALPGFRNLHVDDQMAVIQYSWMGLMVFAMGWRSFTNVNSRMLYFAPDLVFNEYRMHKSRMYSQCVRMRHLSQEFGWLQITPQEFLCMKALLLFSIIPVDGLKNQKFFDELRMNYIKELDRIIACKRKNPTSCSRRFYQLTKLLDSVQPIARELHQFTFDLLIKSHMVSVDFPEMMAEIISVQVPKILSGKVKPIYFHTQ
T1 sequence (P10275 1-920) 2: T1 sequence (P10275 1-920) 1

AR2 cells (HepG2-AR2) [2] = experiment: Alamar Blue (resazurin) post hoc cell viability / cytotoxicity assay in AR2 cells
Procedure: (§1) For antagonist mode and cytotoxicity data, well-level normalized response (resp) was calculated as: resp=100 * RLU−bval/pval−bval where pval is the median RLU value of the MEC positive control wells (minimum four wells).

human AR [3] = biological target: T1, human AR; experiment: AR2 assay, antagonist mode: disruption of R1881 (10 nM)-induced AR homodimerization in HepG2-AR2 cells; type: cell-based
human AR [4] = biological target: T1, human AR; experiment: AR2 assay, agonist mode: ligand-dependent AR homodimerization (NanoBiT luciferase complementation) in stable HepG2-AR2 cells; type: cell-based; details: for max_med / hill_gw / hill_tp / win_model: sheet agonist_fits; for max_med: maximum median response; for hill_gw: Hill model gain slope (Hill coefficient); for hill_gw / hill_tp: 0 given where win_model is Constant; for hill_tp: Hill model top (efficacy); for win_model: winning concentration-response model (Constant, Hill, Gain-Loss); for AR2 agonist: activity call, agonist mode;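 as to hill tp: Log2 fold change of luminescence over DMSO vehicle wells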;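 as to max med: Log2 fold change of luminescence over DMSO vehicle wells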
human AR [5] = biological target: T1, human AR; experiment: cell-based; set-up: species or system AR2 cells (HepG2-AR2); NanoLuc complementation AR homodimerization, antagonist mode, loss of agonist-induced luminescence, AC50 by Hill fit
AR = tested on: AR; set-up: method as in Kleinstreuer et al., 2017; details: cited from earlier work
[6] = tested on: full-length human AR and the receptor interacting domain (RID) of SRC1; set-up: method as in U.S. EPA, 2002b; details: cited from earlier work
[7] = tested on: human AR (LBD and AF2 domains) and the RID of human SRC2; set-up: method as in U.S. EPA, 2002b; details: activity call, agonist mode, 2 h; invitroDBv3.4 ref U.S. EPA, 2002b; cited from earlier work
AR2 cells (HepG2-AR2) [8] = tested on: AR2 cells (HepG2-AR2)
Procedure: as §1

[9] = spid Viability, sheet antagonist_fits
[10] = spid Viability, sheet antagonist_fits, 0 where win_model is Constant
[11] = spid AR_antagonist, sheet antagonist_fits
[12] = spid AR_antagonist, sheet antagonist_fits, 0 where win_model is Constant
[13] = hill_ga, spid=No_RNA, agonist mode, 18 h, no CYP expressed
[14] = hill_ga, spid=Bgal, antagonist mode, 10 nM agonist stimulus, 18 h, no CYP expressed
[15] = hill_ga, spid=No_RNA, antagonist mode, 10 nM agonist stimulus, 18 h, no CYP expressed
[16] = hill_ga, spid=Bgal, agonist mode, 18 h, no CYP expressed
[17] = AR agonist reference class ref Kleinstreuer et al., 2017
[18] = activity call, 8 h, single protocol detects agonists and antagonists, invitroDBv3.4 ref U.S. EPA, 2002b
[19] = activity call, 16 h, single protocol detects agonists and antagonists, invitroDBv3.4 ref U.S. EPA, 2002b
[20] = spid=Bgal, antagonist mode, 10 nM agonist stimulus, 18 h, no CYP expressed, read-out: hill_ga (converted)

Structure (SMILES)	max_med (maximum median response) (AR2 cells (HepG2-AR2) [2]; [9])	hill_tp (Hill model top) (AR2 cells (HepG2-AR2) [2]; [10])	max_med (maximum median response) (human AR [3]; [11])	win_model (winning concentration-response model) (human AR [3]; [11])	hill_gw (Hill model slope) (human AR [3]; [12])	hill_tp (Hill model top) (human AR [3]; [12])	max_med (human AR [4])	hill_gw (human AR [4])	hill_tp (human AR [4])	win_model (human AR [4])	AC50 (human AR [5]; [14]) [µM]	AC50 (human AR [5]; [15]) [µM]	AC50 (human AR [1]; [16]) [µM]	Agonist reference (AR; [17])	UPitt agonist [7]	also measured
CCOP(=S)(OCC)Oc1nc(Cl)c(Cl)cc1Cl [Chlorpyrifos]	11.582	0	43.366	Hill	1.601	66.6083	-0.04623									AC50 (human AR [1]; hill_ga): > 99.9 µM; AC50 (human AR [5]; hill_ga): 32.9 µM and 58.7 µM
CCCN(CCC)c1c([N+](=O)[O-])cc(C(F)(F)F)cc1[N+](=O)[O-] [Trifluralin]	33.7321	18.5971		Hill	1.383		0.1998	0.3	0.2593	Gain-Loss	52.2	47.5				AC50 (human AR [1]; [13]): > 99.9 µM; hill_tp (Hill model top) (human AR [3]): 55.7657; max_med (maximum median response) (human AR [3]): 39.0604
CCCCOC(=O)c1ccc(O)cc1 [Butylparaben]	19.2784	11.4715	51.2671	Hill	8	52.9514	0.1079	8	0.09975	Gain-Loss	73.1	67.8	10.4			AC50 (human AR [1]; [13]): 15.3 µM
CC(C)=CC1C(C(=O)OCN2C(=O)C3=C(CCCC3)C2=O)C1(C)C (stereo not drawn) [Tetramethrin]	11.4832	20.7059	7.623	Hill	3.974	4.695	0.4102	4.525	0.4941	Hill				Inactive	0	OT 8 hr [6, 18]: 1; OT 16 hr [6, 19]: 1; activity call in agonist mode (human AR [4]; 128-chemical evaluation, 18 h, active = maximal median response >5*bmad): inactive; AR2 agonist (human AR [4]; 18 h): 0; AC50 (human AR [5]; [20]): 43.1 µM
COC(=O)Nc1nc2ccccc2[nH]1 [Carbendazim]	17.1488	11.742		Hill	8		0.02367		0	Constant				Inactive	0	OT 8 hr [6, 18]: 0; OT 16 hr [6, 19]: 1; hill_tp (Hill model top) (human AR [3]): 18.0536; max_med (maximum median response) (human AR [3]): 16.7598; hill_ga (Hill model log AC50) (AR2 cells (HepG2-AR2) [8]): 1.227; AR2 agonist (human AR [4]; 18 h): 0
C[C@]12CCC(=O)C[C@@H]1CC[C@@H]1[C@@H]2CC[C@]2(C)[C@@H](O)CC[C@@H]12 [5alpha-Dihydrotestosterone]															0	Agonist reference (AR): Moderate; OT 8 hr [6]: 1; OT 16 hr [6]: 1; hill_tp (Hill model top) (AR2 cells (HepG2-AR2) [2]): 25.0955; max_med (maximum median response) (AR2 cells (HepG2-AR2) [2]): 25.6282; hill_ga (Hill model log AC50) (AR2 cells (HepG2-AR2) [8]): 1.263
C[C@]12CC[C@@H]3c4ccc(O)cc4CC[C@H]3[C@@H]1CCC2=O [Estrone]	20.7469	20.0823	84.5958	Hill	1.278	83.5344	3.757	0.4978	4.258	Hill						AC50 (human AR [1]; spid=Bgal, agonist mode, 18 h, no CYP expressed, read-out: hill_ga (converted)): 4.32 µM; AC50 (human AR [1]; spid=No_RNA, agonist mode, 18 h, no CYP expressed, read-out: hill_ga (converted)): 2.63 µM; AC50 (human AR [5]; [20]): 0.556 µM; AC50 (human AR [5]; spid=No_RNA, antagonist mode, 10 nM agonist stimulus, 18 h, no CYP expressed, read-out: hill_ga (converted)): 0.707 µM
C[C@]12CC[C@@H]3c4ccc(O)cc4CC[C@H]3[C@@H]1CC[C@H]2O [17alpha-Estradiol]	9.057	0												Inactive	1	OT 8 hr [6]: 1; OT 16 hr [6]: 1
O=C(c1ccc(O)cc1O)c1ccc(O)cc1O [2,2',4,4'-Tetrahydroxybenzophenone]	18.7262	17.7235	92.9832	Hill	1.5932	93.4271	2.26	3.418	2.275	Gain-Loss	9.95	10.6	9.83			AC50 (human AR [1]; [13]): 9.94 µM
C[C@]12CC[C@@H]3c4ccc(O)cc4C[C@@H](CCCCCCCCC[S+]([O-])CCCC(F)(F)C(F)(F)F)[C@H]3[C@@H]1CC[C@@H]2O (stereo partly drawn) [Fulvestrant]	0.2489	0	30.2853	Hill	0.7802	36.6036	0.04086		0	Constant				Inactive	0	OT 8 hr [6, 18]: 0; OT 16 hr [6, 19]: 0; AR2 agonist (human AR [4]; 18 h): 0
O=[N+]([O-])c1c(Cl)c(Cl)c(Cl)c(Cl)c1Cl [Pentachloronitrobenzene]	37.6424	16.6244	40.8543	Hill	8	49.0252	0.2467	5.807	0.296	Gain-Loss			> 99.9			
N#Cc1ccc(C(c2ccc(C#N)cc2)n2cncn2)cc1 [Letrozole]	11.0349	0	39.7548	Hill	1.809	49.9358	6.074	3.273	5.82	Gain-Loss		54.9	> 99.9			
O=C1C[C@@H](c2ccc(O)cc2)Oc2cc(O)cc(O)c21 [Naringenin]	0.3009	0		Hill	8		0.1409	8	0.1206	Gain-Loss	49.8	57.7	> 99.9			hill_tp (Hill model top) (human AR [3]): 38.8754; max_med (maximum median response) (human AR [3]): 37.0321
